Experimental data published in PubChem BioAssay (NCI).
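All cell lines were grown in 96-well plates and treated with compound for 48 hours. GI50 is the concentration that inhibits growth by half. Definition used: TGI = concentration required for complete inhibition of growth.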

How the values were obtained:
Assay in all cases: DTP human tumour cell line panel, 48 h
[1] = test system: DLD-1 colon
[2] = test system: HOP-18 NSCLC
[3] = test system: XF 498 CNS
[4] = test system: DMS 273 small cell lung
[5] = test system: KM20L2 colon
[6] = test system: MDA-MB-435
[7] = test system: T-47D breast
[8] = test system: RXF-631 renal
[9] = test system: MDA-N

Row | SMILES | TGI [1] | TGI [5] | GI50 [6] | TGI [6] | GI50 [7] | TGI [7] | other results
1 | COc1ccc(C2=NC(C)(C)CO2)cc1 | > 100 µM | > 100 µM |  |  |  |  | TGI [2]: > 100 µM; TGI [3]: > 100 µM; TGI [4]: > 100 µM
2 | Clc1ccc(OCc2nnc3n2N=C(c2ccc(Cl)cc2Cl)CS3)c(Cl)c1 |  |  | 24.3 µM | > 100 µM | 33 µM | > 100 µM | 
3 | CC1(C)CCc2cc3c(cc2O1)OCCC3=O | > 100 µM | > 100 µM |  |  |  |  | TGI [2]: > 100 µM; TGI [3]: > 100 µM; TGI [8]: > 100 µM
4 | COc1ccccc1C(=O)c1ccc2ccccc2c1 |  |  |  | 8.88 µM |  |  | 
5 | Oc1c(Br)cc(CN(Cc2cc(Br)c(O)c(Br)c2)C2CCCCC2)cc1Br |  |  |  | > 100 µM |  | > 100 µM | TGI [9]: > 100 µM
6 | C=C1CC(COc2cc(Cl)nc(N)n2)C1 |  |  |  |  | 23.3 µM |  | 
7 | FC(F)(F)c1ccc2c(Nc3cccc(C4CC(c5ccccc5)=NN4c4ccc(Cl)cc4)c3)ccnc2c1 (centres undefined) |  |  | 2.97 µM | 11.6 µM | 5.93 µM | 37.4 µM | 
8 | CCCCCCNc1nc(NCCCCCC)c2[nH]c(NCCCCCC)nc2n1 |  |  | 8.75 µM | 24.9 µM | 2.42 µM | 17.3 µM | 
9 | COC(=O)/C(=N\NC(=S)NN)C(C(=O)C(=O)Nc1ccccc1C(N)=O)c1nc2ccccc2[nH]c1=O (centres undefined) |  | > 100 µM |  |  |  |  | TGI [2]: > 100 µM; TGI [3]: > 100 µM; TGI [8]: > 100 µM; TGI [4]: > 100 µM
10 | N#CC(C#N)=Cc1cccc(Oc2ccccc2)c1 | 51.9 µM | > 80.9 µM |  |  |  |  | TGI [2]: 42.4 µM; TGI [3]: 46.6 µM; TGI [4]: 36.1 µM
11 | CCCCCC(=O)Oc1ccc(/C(=C(\C)c2ccc(OC)cc2)c2ccc(OCCN3CCCCC3)cc2)cc1 |  |  | 7.93 µM | 20.7 µM | 2 µM | 16.5 µM | 
12 | COc1ccc2c(c1)[C@@]13CCN4CC5=CCO[C@H]6CC(=O)N2[C@H]1[C@H]6[C@H]5C[C@H]43 |  |  |  | > 100 µM |  | > 100 µM | TGI [9]: > 100 µM
13 | Cc1c(C(=O)NN)nnn1-c1ccnc2c(C(F)(F)F)cccc12 |  |  | > 100 µM | > 100 µM | > 100 µM | > 100 µM | 
14 | Nc1ccc(SC23CC4CC(CC(C4)C2)C3)cc1 |  |  |  | > 100 µM |  | > 100 µM | 
15 | Cc1ccc(C(=O)CC(Sc2cccc(Cl)c2Cl)c2ccc(Cl)cc2)cc1C (centres undefined) |  |  | 20 µM | 50 µM | 27.1 µM | 76.9 µM | 
16 | NCCN1CCN(c2nccc(-c3ccc4ccccc4c3)n2)CC1 |  |  | 1.8 µM | 3.25 µM | 1.88 µM | 4.59 µM | 
17 | CC(=O)n1c(-c2ccc(Cl)cc2)nc2c(c1=O)C(c1ccc(Cl)cc1)c1sc3c(Cl)cccc3c1O2 (centres undefined) |  |  | 0.167 µM | 0.463 µM | 0.48 µM | 2.78 µM | 
18 | Cc1noc(C)c1-c1ccc2[nH]c(=O)n3c2c1OC[C@@H]3c1ccccn1 |  |  | 3 µM | > 100 µM | 0.585 µM | > 100 µM | 
19 | C=C(C)[C@@H]1CC[C@@]2(C(=O)O)CC[C@]3(C)C(CCC4[C@@]5(C)CCC(OS(=O)(=O)c6ccccc6)C(C)(C)C5CC[C@]43C)C12 (some centres undefined) |  |  | 4.49 µM | 20.1 µM | 2 µM | 17.1 µM | 

Row | SMILES | TGI [1] | TGI [5] | GI50 [6] | TGI [6] | GI50 [7] | TGI [7] | other results
20 | Cc1c(-c2nc(N)nc(C3CC3)c2C)nc(N)nc1C1CC1 |  |  |  | > 100 µM |  | > 100 µM | TGI [9]: > 100 µM
21 | COc1ccc(C(=O)C(C(=O)CCC(=O)Nc2cccc(C(F)(F)F)c2)c2ccccc2)cc1 (centres undefined) | > 100 µM | > 100 µM |  |  |  |  | TGI [2]: > 100 µM; TGI [3]: > 100 µM; TGI [4]: > 100 µM
22 | CN1CCN(C)C1c1cccc(C2N(C)CCN2C)c1 | > 100 µM | > 100 µM |  |  |  |  | TGI [8]: > 100 µM; TGI [4]: > 100 µM
23 | COc1ccc(C2C(N)=NCC2c2ccccn2)cc1 (centres undefined) | > 100 µM | > 100 µM |  |  |  |  | TGI [2]: 97.9 µM; TGI [3]: > 100 µM; TGI [8]: > 100 µM
24 | CC/C=C\C/C=C\C1CC(=O)NCCCNCCCCN1 (centres undefined) | > 100 µM | > 100 µM |  |  |  |  | TGI [4]: > 100 µM
25 | COc1ccc(C2C(C#N)=C(N)OC3=C2CCCc2ccc(F)cc23)cc1OC (centres undefined) |  |  | 12.9 µM | > 53.3 µM | 46.1 µM | 98.3 µM | 
26 | C=CCOc1c(Br)cc(Br)cc1Br |  |  | 3.46 µM | 66.1 µM | 31.4 µM | > 100 µM | 
27 | Cc1ncc([N+](=O)[O-])n1CCNC(=O)CCCCn1ccnc1[N+](=O)[O-] |  |  |  | > 100 µM |  | > 100 µM | TGI [9]: > 100 µM
28 | CC1CCCC(C(=O)/C(=C/c2cccc(Cl)c2)C(=O)C(=O)O)C1 (centres undefined) | 40.3 µM | 90 µM |  |  |  |  | TGI [2]: > 100 µM; TGI [4]: > 100 µM
29 | O=C(N/N=C/c1ccc(Cl)cc1Cl)c1ccccc1Nc1cccc(C(F)(F)F)c1 |  |  | 22.3 µM | > 100 µM | 2.2 µM | 6.9 µM | 
30 | Cc1sc(C)c(-c2ccc(CO)o2)c1-c1ccc(CO)o1 |  |  | > 100 µM | > 100 µM |  |  | 
31 | C=C(COC(C)=O)CC(/C=C(\C)CCC=C(C)C)OC(C)=O (centres undefined) | > 100 µM | > 100 µM |  |  |  |  | TGI [3]: > 100 µM; TGI [4]: > 100 µM
32 | CC(O)CN1C(=O)NC(Cc2ccccc2)C1=O (centres undefined) | > 100 µM | > 100 µM |  |  |  |  | TGI [2]: > 100 µM; TGI [3]: > 100 µM; TGI [4]: > 100 µM
33 | COc1ccc(-c2cc(-c3cc(Cl)ccc3Cl)nc3nc(=S)[nH]c(N)c23)cc1 |  |  | 3.93 µM | 17.6 µM | > 100 µM | > 100 µM | 
34 | Cc1ccc(-c2nc(C(Cl)Cl)n3nc(-c4ccccc4)cc3n2)cc1 |  |  |  |  | 0.505 µM | 3.53 µM | 
35 | c1ccc2c(c1)N=C(c1cccc3ccccc13)CC(c1cccc3ccccc13)S2 (centres undefined) | 16.2 µM | 10.4 µM |  |  |  |  | TGI [2]: 13.8 µM; TGI [3]: 22.1 µM; TGI [4]: > 44.7 µM
36 | N#Cc1c(-c2ccccc2)nc2c(c(-c3ccccc3)nn2-c2ccccc2)c1-c1ccc(O)cc1 |  |  | 1.86 µM | 3.71 µM | 3.05 µM | 23.8 µM | 
37 | NC1=NC(=O)C(CC(=O)Nc2ccc([N+](=O)[O-])cc2[N+](=O)[O-])S1 (centres undefined) | > 100 µM | > 100 µM |  |  |  |  | TGI [2]: > 100 µM; TGI [3]: > 100 µM; TGI [8]: > 100 µM
38 | CCN(Cc1c(F)cccc1F)c1ccc(CO)c(Cl)c1 |  |  | 14.8 µM | 40.9 µM | 0.0516 µM | 0.288 µM | 
